Laboratory results reported in US20110070232A1, “Combination Therapy with an Antitumor Alkaloid” (Pharma Mar, S.A., priority 2008, published 2011).
Like-named read-outs stand apart in the source and are kept apart here.

Legend:
SK-OV-3 tumors = format: in vivo, mice
Source text: Female athymic nude mice (Harlan Sprague Dawley, Madison, Wis.) were utilized for all experiments. Animals were housed in ventilated rack caging with food and water ad libitum. The mice were acclimated for at least 5 days prior to tumor implantation with tumor fragments.
The tumor model used in these studies was SK-OV-3 cell line, which was obtained from the ATCC (Manassas, Va.).
SK-OV-3 fragments were removed from donor animals and tissue was debrided of membrane and any hemorrhagic and necrotic areas and 3-4 mm^3 fragments, from in vivo passage 2, were implanted SC on the right flank of each animal, using a 13G trochar. Bacterial culture was taken on cells used to implant the study.
Treatments were initiated on DPI 14.
Tumor size measurements were recorded twice weekly from the treatment initiation until the termination of the study.
(§1) Mean, standard deviation and standard error of the mean were determined for tumor volume for all animal groups at all assessments. Student's t test was performed on tumor volumes at each measurement day, including at the end of the study, to determine whether there were any statistically significant differences between combination treatment groups and single monotherapy treatment groups.

NCI-H460 tumors = format: in vivo, mice
Experimental: Female athymic nude mice (Harlan Sprague Dawley, Madison, Wis.) were utilized for all experiments. Animals were housed in ventilated rack caging with food and water ad libitum. The mice were acclimated for at least 5 days prior to tumor implantation.
The tumor model used in this study was NCI-H460 cell line which is a human NSCLC cell line obtained from the ATCC (Manassas, Va.). […] Cells from in vitro passage 7 were implanted SC into study mice using a 1 ml syringe with a 13G trocar: 5×10^6 cells/mouse in 0.2 ml 50% Matrigel/50% RPMI medium of NCI-H460 without serum or antibiotics. Bacterial culture was taken on cells used to implant the study.
Treatments were initiated on DPI 9.
Tumor size measurements were recorded 2-3 times/week from the treatment initiation until the termination of the study.
as §1

[1] = Bevacizumab […] IP, alone or with PM00104 0.90 mg/kg/day IV
[2] = PM00104 0.90 mg/kg/day IV and/or Bevacizumab 5 mg/kg/day IP
[3] = Bevacizumab […] IP, alone or with PM00104 0.9 mg/kg/day IV
[4] = PM00104 0.9 mg/kg/day IV and/or Bevacizumab 5 mg/kg/day IP

bevacizumab
% T/C on day 14 (SK-OV-3 tumors; [1]): 100.5% | % T/C on day 17 (SK-OV-3 tumors; [1]): 85.0% | % T/C on day 21 (SK-OV-3 tumors; [1]): 61.0% | % T/C on day 24 (SK-OV-3 tumors; [1]): 48.4% | % T/C on day 29 (SK-OV-3 tumors; [1]): 32.1% | % T/C on day 32 (SK-OV-3 tumors; [1]): 29.6% | % T/C on day 36 (SK-OV-3 tumors; [1]): 40.3% | % T/C on day 43 (SK-OV-3 tumors; [1]): 48.7% | % T/C on day 50 (SK-OV-3 tumors; [1]): 47.5% | % T/C on day 57 (SK-OV-3 tumors; [1]): 70.0% | % T/C on day 14 (SK-OV-3 tumors; [2]): 100.2% | % T/C on day 17 (SK-OV-3 tumors; [2]): 76.6% | % T/C on day 21 (SK-OV-3 tumors; [2]): 64.0% | % T/C on day 24 (SK-OV-3 tumors; [2]): 42.6% | % T/C on day 29 (SK-OV-3 tumors; [2]): 28.0% | % T/C on day 32 (SK-OV-3 tumors; [2]): 25.8% | % T/C on day 36 (SK-OV-3 tumors; [2]): 30.7% | % T/C on day 43 (SK-OV-3 tumors; [2]): 43.8% | % T/C on day 50 (SK-OV-3 tumors; [2]): 42.5% | % T/C on day 57 (SK-OV-3 tumors; [2]): 46.1% | % T/C on day 9 (NCI-H460 tumors; [3]): 99.4% | % T/C on day 13 (NCI-H460 tumors; [3]): 81.7% | % T/C on day 16 (NCI-H460 tumors; [3]): 74.3% | % T/C on day 21 (NCI-H460 tumors; [3]): 59.7% | % T/C on day 24 (NCI-H460 tumors; [3]): 52.0% | % T/C on day 27 (NCI-H460 tumors; [3]): 26.9% | % T/C on day 30 (NCI-H460 tumors; [3]): 43.3% | % T/C on day 38 (NCI-H460 tumors; [3]): 96.8% | % T/C on day 41 (NCI-H460 tumors; [3]): 104.7% | % T/C on day 9 (NCI-H460 tumors; [4]): 102.1% | % T/C on day 13 (NCI-H460 tumors; [4]): 91.3% | % T/C on day 16 (NCI-H460 tumors; [4]): 87.6% | % T/C on day 21 (NCI-H460 tumors; [4]): 74.2% | % T/C on day 24 (NCI-H460 tumors; [4]): 68.3% | % T/C on day 27 (NCI-H460 tumors; [4]): 38.7% | % T/C on day 30 (NCI-H460 tumors; [4]): 43.7%
